# Reference: BigSolDB 2.1
smiles,measurement,setting,value
Brc1cc(Br)cc(Br)c1,solubility (mole fraction),"in 1,4-dioxane, 288.15 K",0.0656
same,solubility (mole fraction),"in 1,4-dioxane, 293.15 K",0.0742
same,solubility (mole fraction),"in 1,4-dioxane, 298.15 K",0.0851
same,solubility (mole fraction),"in 1,4-dioxane, 303.15 K",0.0972
same,solubility (mole fraction),"in 1,4-dioxane, 308.15 K",0.111
same,solubility (mole fraction),"in 1,4-dioxane, 313.15 K",0.123
same,solubility (mole fraction),"in 1,4-dioxane, 318.15 K",0.141
same,solubility (mole fraction),"in 1,4-dioxane, 323.15 K",0.157
same,solubility (mole fraction),"in 1,4-dioxane, 328.15 K",0.178
same,solubility (mole fraction),"in DMAc, 288.15 K",0.0159
same,solubility (mole fraction),"in DMAc, 293.15 K",0.0195
same,solubility (mole fraction),"in DMAc, 298.15 K",0.024
same,solubility (mole fraction),"in DMAc, 303.15 K",0.0292
same,solubility (mole fraction),"in DMAc, 308.15 K",0.0346
same,solubility (mole fraction),"in DMAc, 313.15 K",0.041
same,solubility (mole fraction),"in DMAc, 318.15 K",0.0491
same,solubility (mole fraction),"in DMAc, 323.15 K",0.0582
same,solubility (mole fraction),"in DMAc, 328.15 K",0.0683
same,solubility (mole fraction),"in DMF, 288.15 K",0.00998
same,solubility (mole fraction),"in DMF, 293.15 K",0.0127
same,solubility (mole fraction),"in DMF, 298.15 K",0.0161
same,solubility (mole fraction),"in DMF, 303.15 K",0.0202
same,solubility (mole fraction),"in DMF, 308.15 K",0.0244
same,solubility (mole fraction),"in DMF, 313.15 K",0.0295
same,solubility (mole fraction),"in DMF, 318.15 K",0.0355
same,solubility (mole fraction),"in DMF, 323.15 K",0.044
same,solubility (mole fraction),"in DMF, 328.15 K",0.0521
